Reference: patent US12011448B2, “Therapeutic or preventing agent for nephrotic syndrome including indole compound” (Japan Tobacco Inc., priority 2018, dated 2024)

What was measured:
[1] = system: rat anti-glomerular basement membrane (GBM) antibody induced nephritis model; test: rat anti-GBM antibody induced nephritis model (urinary protein excretion, plasma total cholesterol); assay type: in vivo; conditions: disease animal model showing nephrotic syndrome-like symptoms
Description: Using a rat anti-GBM antibody induced nephritis model, the suppressive effect of Compound A on an increase in urinary protein excretion and plasma total cholesterol concentration so was evaluated. The evaluation was performed by reference to non-patent document 2. As the experiment animal, 8-week-old female WKY/NCrlCrlj rat (CHARLES RIVER LABORATORIES JAPAN, INC.) was used. Monohydrochloride of Compound A was dissolved in 0.5% (w/v) methylcellulose (MC) to prepare 2 mg/mL and 6 mg/mL Compound A solutions. Ciclosporin (Wako Pure Chemical Industries, Ltd., 0.5% (w/v)) was suspended in MC to prepare a 2 mg/mL Ciclosporin suspension. […]
As for urine, the urine volume was measured, after which the protein concentration in the centrifugal supernatant was measured by absorbance at wavelength 600 nm/sub-wavelength 660 nm using a total protein assay kit (micro TP-Test Wako, Wako Pure Chemical Industries, Ltd.). The urinary protein excretion (mg/day) was calculated from the urine volume and the protein concentration.
As for blood, the total cholesterol concentration (mg/dL) in plasma obtained by centrifugation was measured using a biochemical automatic analysis apparatus (Hitachi automatic analysis apparatus 7180, Hitachi High-Technologies).
The mean of the urinary protein excretion and the plasma total cholesterol concentration was calculated.

[2] = target: T1, inducible T cell kinase (ITK) (Homo sapiens, UniProt Q08881); conditions: described in patent document 1 (WO 2011/065402); cited from earlier work
T1 sequence (Q08881 1-620): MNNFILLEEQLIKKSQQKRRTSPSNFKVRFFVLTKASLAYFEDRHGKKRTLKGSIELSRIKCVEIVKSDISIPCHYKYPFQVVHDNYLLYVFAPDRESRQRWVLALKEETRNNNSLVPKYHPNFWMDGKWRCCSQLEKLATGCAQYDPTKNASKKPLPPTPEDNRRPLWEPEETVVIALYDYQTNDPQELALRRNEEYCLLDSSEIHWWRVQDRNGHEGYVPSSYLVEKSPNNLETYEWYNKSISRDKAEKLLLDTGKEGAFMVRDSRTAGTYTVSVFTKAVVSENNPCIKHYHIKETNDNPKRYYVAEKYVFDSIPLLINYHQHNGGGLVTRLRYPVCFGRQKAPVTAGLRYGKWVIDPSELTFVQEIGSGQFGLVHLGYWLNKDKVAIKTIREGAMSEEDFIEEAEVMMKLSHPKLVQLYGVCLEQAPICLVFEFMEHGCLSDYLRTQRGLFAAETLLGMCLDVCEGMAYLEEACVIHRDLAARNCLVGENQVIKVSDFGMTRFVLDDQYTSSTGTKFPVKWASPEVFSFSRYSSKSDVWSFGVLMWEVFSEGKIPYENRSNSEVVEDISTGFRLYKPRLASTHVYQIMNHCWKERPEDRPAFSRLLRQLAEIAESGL

C[C@@H](C(=O)N(C)c1ccc2cc(-c3n[nH]c4c3CCC(C)(C)C4)[nH]c2c1)N1CCOCC1 [Compound A, N-[2-(6,6-dimethyl-4,5,6,7-tetrahydro-1H-indazol-3-yl)-1H-indol-6-yl]-N-methyl-(2S)-2-(morpholin-4-yl)propanamide]
severity of the disease [1]: significantly reduce severity of the disease
inducible T cell kinase (ITK) inhibitory activity [2]: has an inducible T cell kinase (ITK) inhibitory activity
